Data taken from patent US8119380B2, “Methods and materials for making and using transgenic dicamba-degrading organisms” (Board of Regents of University of Nebraska, priority 1997, dated 2012).
Where “and” joins values, the source holds several entries; their conditions need not be identical. Identical values can stand only once.

What was measured:
[1] = target: dicamba O-demethylase (Stenotrophomonas maltophilia, UniProt Q5S3I3); conditions: cleared cell lysate, less than 1 ppm oxygen, 30° C., within 1 hour
Procedure: Oxygen requirement. […] The procedures for displacement of oxygen from the reaction mixture were performed at 4° C. Reaction mixtures lacking enzyme were placed in a vial and sealed with a rubber stopper. For displacement of oxygen, the vial was evacuated twice by vacuum and flushed each time with nitrogen. After a third evacuation, the vial was flushed with 90% nitrogen plus 10% hydrogen. The enzyme solution was likewise purged of oxygen (with care taken not to bubble the enzyme solution). Both the reaction mixtures and enzyme solutions were transferred into an anaerobic chamber (95% N2-5% H2 atmosphere). Two hundred forty microliters of cleared cell lysate was injected through the rubber stopper with a microsyringe and gently mixed with 960 μl of oxygen-free reaction mixture. Reactions were carried out at 30° C.

[2] = test system: dicamba O-demethylase; assay type: biochemical; conditions: mixture of three partially purified components, 30 minutes at 30° C.; 0.5 mM NADH, 0.5 mM NADPH, 10 mM MgCl2, 0.5 mM FeSO4, 0.2 mM FAD, 0.2 mM FMN
Procedure: (§1) Enzyme assays. […] At specific times, the reactions were stopped by adding 50 μl of 5% (vol/vol) H2SO4.
(§2) The solvent system for running the TLC was chloroform-ethanol-acetic acid (85:10:5 [vol/vol/vol]). The resolved reaction products were visualized and quantified by exposing the TLC plate to a phosphor screen for 24 hours and then scanning the screen in a PhosphorImager SF (Molecular Dynamics, Sunnyvale, Calif.). […] Specific activities were based on the total protein concentration of the assay mixture.
(§3) When a single component was assayed, the other two components were provided in excess.
(§4) Component and cofactor requirements. […] Samples were applied to a Q-Sepharose (Fast Flow) fast protein liquid chromatography column (Pharmacia) in buffer A and eluted with a 100-ml linear gradient of 0 to 0.6 M KCl (for the oxygenase component) or 0 to 1.0 M KCl (for the ferredoxin and reductase components) in 1.5-ml fractions. Appropriate pooled fractions from separate columns for oxygenase purification (fractions 29 to 37), for ferredoxin purification (fractions 30 to 37), or for reductase purification (fractions 26 to 38) were used for the determination of component and cofactor requirements.
(§5) The three components were assayed for O-demethylase activity in various combinations to determine component requirements.
(§6) The amounts of partially purified protein (provided in an optimized ratio) in the reaction mixtures were 85 μg of oxygenase, 55 μg of ferredoxin and 50 μg of reductase. The concentration of cofactors used in the reaction mixtures were 0.5 mM NADH, 0.2 mM FAD, 0.5 mM FeSO4, 10 mM MgCl2, 0.5 mM NADPH, and 0.2 mM FMN.

[3] = target: T1, dicamba O-demethylase (Stenotrophomonas maltophilia, UniProt Q5S3I3); assay type: biochemical; conditions: mixed with excess amounts of components I and III; 55 μg partially purified component II or 100 μg highly purified Clostridium ferredoxin
T1 construct: partially purified O-demethylase enzyme [the 40%-70% (w/v) (NH4)2SO4 fraction from a cleared cell lysate]; endogenous in cells; host or cells: Pseudomonas maltophilia strain DI-6 (cleared cell lysate, ammonium sulfate cut, or Phenyl-/Q-Sepharose fractions)
T1 sequence (Q5S3I3 2-339): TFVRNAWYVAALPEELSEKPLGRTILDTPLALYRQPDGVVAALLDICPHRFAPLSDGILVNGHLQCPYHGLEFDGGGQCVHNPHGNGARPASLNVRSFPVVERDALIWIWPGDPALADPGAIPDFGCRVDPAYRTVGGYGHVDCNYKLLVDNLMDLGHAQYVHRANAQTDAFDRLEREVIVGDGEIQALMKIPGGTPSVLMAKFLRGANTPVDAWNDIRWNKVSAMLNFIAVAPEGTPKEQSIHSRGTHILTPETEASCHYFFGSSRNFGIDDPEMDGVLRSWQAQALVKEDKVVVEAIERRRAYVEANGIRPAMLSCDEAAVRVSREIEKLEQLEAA
Procedure: as §1, §2, §3, §4, §5, §6

[4] = test system: plants; conditions: cited from earlier work
[5] = test system: COc1c(Cl)ccc(Cl)c1C(=O)O; experiment: cells, lysate or membranes named; conditions: other: partially purified O-demethylase (40%-70% ammonium sulfate fraction), pH 7.0, 30° C., Michaelis-Menten/Lineweaver-Burk fit, duplicate experiments
[6] = Reductase assays (reduction of cytochrome c or DCIP in the presence of NADH); assay type: biochemical
Procedure: The reaction contained 0.5 mM NADH, 0.2 mM FAD (flavin adenine dinucleotide), 50 μM DCIP, 20 mM Tris buffer (pH 8.0), and 10-100 μl of enzyme sample in a total volume of 1 ml. The change in absorbance at 600 nm with time was measured at room temperature. Specific activity was calculated using an extinction coefficient at 600 nm of 21.0 mM^−1cm^−1 for reduced DCIP. Specific activity was expressed as nmol DCIP reduced min^−1 mg^−1 of protein.
In addition, an in situ DCIP assay was used to detect and locate the reductase activity in protein preparations separated on isoelectric focusing (IEF) gels. After electrophoresis of the proteins on an IEF gel, lanes sliced from the gel were washed with 20 ml of cold 20 mM Tris-HCl buffer (pH 8.0). Low melting agarose was dissolved by heating in 10 ml of 20 mM Tris-HCl buffer (pH 8.0) at a final concentration of 1.5% (w/v). When the agarose cooled to near room temperature, it was supplemented with 0.2 mM FAD, 50 μM DCIP, and 0.5 mM NADH. The assay mixture was poured onto a glass plate and allowed to solidify. The gel piece was placed on top of the solidified reaction mixture and allowed to set at room temperature for 15 minutes. If the gel slice contained a protein with reductase activity, a colorless band of reduced DCIP was generated in the blue background of DCIP.

Molecule: COc1c(Cl)ccc(Cl)c1C(=O)O [dicamba, 3,6-dichloro-2-methoxybenzoic acid]
- conversion of dicamba to 3,6-DCSA under anaerobic conditions [1]: virtually no conversion

Molecule: Cc1cc2nc3c(=O)[nH]c(=O)nc-3n(C[C@H](O)[C@H](O)[C@H](O)COP(=O)(O)OP(=O)(O)OC[C@H]3O[C@@H](n4cnc5c(N)ncnc54)[C@H](O)[C@@H]3O)c2cc1C [FAD, flavin adenine dinucleotide]
- cofactor effect on dicamba O-demethylase activity [2]: little or no stimulation

Molecule: ferredoxin from Clostridium: highly purified ferredoxin from Clostridium pasteurianum (AYKIADSCVSCGACASECPVNAISQGDSIFVIDADTCIDCGNCANVCPVGAPVQE; UniProt P00195 2-56, looked up)
- rate of conversion of dicamba to 3,6-DCSA (ferredoxin component) [3]: 0.6 nmol/min/mg

Molecule: O=C(O)c1c(Cl)ccc(Cl)c1O [3,6-DCSA, 3,6-dichlorosalicylic acid]
- herbicidal activity [4]: no herbicidal activity

Molecule: Cc1cc2nc3c(=O)[nH]c(=O)nc-3n(C[C@H](O)[C@H](O)[C@H](O)COP(=O)(O)O)c2cc1C [FMN, flavin mononucleotide]
- cofactor effect on dicamba O-demethylase activity [2]: little or no stimulation

Molecule: dicamba O-demethylase (Stenotrophomonas maltophilia)
- Km [5]: 9.9 ± 3.9 µM and 10 µM

Molecule: NC(=O)C1=CN([C@@H]2O[C@H](COP(=O)(O)OP(=O)(O)OC[C@H]3O[C@@H](n4cnc5c(N)ncnc54)[C@H](O)[C@@H]3O)[C@@H](O)[C@H]2O)C=CC1 [NADH, beta-nicotinamide adenine dinucleotide, reduced form]
- cofactor effect on dicamba O-demethylase activity [2]: markedly more effective than NADPH

Molecule: NC(=O)C1=CN([C@@H]2O[C@H](COP(=O)(O)OP(=O)(O)OC[C@H]3O[C@@H](n4cnc5c(N)ncnc54)[C@H](OP(=O)(O)O)[C@@H]3O)[C@@H](O)[C@H]2O)C=CC1 [NADPH]
- cofactor effect on dicamba O-demethylase activity [2]: supported enzyme activity

B1: component I: oxygenase component of dicamba O-demethylase (protein)
chain: MTFVRNAWYVAALPEELSEKPLGRTILDTPLALYRQPDGVVAALLDICPHRFAPLSDGILVNGHLQCPYHGLEFDGGGQCVHNPHGNGARPASLNVRSFPVVERDALIWIWPGDPALADPGAIPDFGCRVDPAYRTVGGYGHVDCNYKLLVDNLMDLGHAQYVHRANAQTDAFDRLEREVIVGDGEIQALMKIPGGTPSVLMAKFLRGANTPVDAWNDIRWNKVSAMLNFIAVAPEGTPKEQSIHSRGTHILTPETEASCHYFFGSSRNFGIDDPEMDGVLRSWQAQALVKEDKVVVEAIERRRAYVEANGIRPAMLSCDEAAVRVSREIEKLEQLEAA
modifications: Pseudomonas maltophilia DI-6
notes: oxygenase component of dicamba O-demethylase
- reductase activity with cytochrome c or DCPIP in the presence of NADH [6]: Neither component I nor component II showed activity
